US20060160871A1, “Stable non-crystalline formulation comprising losartan” (Nektar Therapeutics, priority 2004, published 2006)

Legend:
[1] = Differential Scanning Calorimetry (DSC): amorphous form and glass transition temperature; type: physicochemical; details: specific heat as a function of temperature
Procedure: DSC was used to determine glass transition temperatures. This technique provides a measure of the glass transition characteristics of amorphous materials. In addition, the absence of a melting point is indicative of the lack of three dimensional order characteristic of crystalline materials. A Perkin-Elmer™ DSC 7 (Perkin-Elmer Ltd, UK) was used. 1-5 mg samples were examined in sealed, crimped aluminium pans, under an atmosphere of nitrogen. Samples were measured using a TA DSC-2920 instrument (TA Instruments, New Castle, Del.). About 5-10 mg sample was packed into an aluminum DSC pan and gently tapped to get the powder to form a uniform layer on the bottom of the pan (Catalog numbers 900 793.901 for pans and 900 794.901 for lids). The DSC pan was hermetically sealed using a sample encapsulation press (part # 900680.902). Helium is used as the DSC purge gas at 30 ml/min. A Refrigerated Control System (RCS) provides the heat sink for the DSC, with helium as the circuit gas run at ˜110 ml/min. In modulated DSC experiments, the sample was first cooled to about 0° C., held isothermally for 10 minutes, and then heated at 2° C./minute to ˜200° C. The heating rate was modulated by superimposing a sinusoidal heating profile at ±0.318° C./min.

[2] = Powder flowability after exposure to ambient conditions; type: physicochemical
Text: The particles made by Example 2 were further determined to be advantageous over pure non-crystalline forms. […] Accordingly, the non-crystalline losartan and PVP-VA containing powder formulation has an improved flowability for downstream process such as tablet formation.

## CCCCc1nc(Cl)c(CO)n1Cc1ccc(-c2ccccc2-c2nnn[nH]2)cc1.[K] [pure non-crystalline losartan, 2-butyl-4-chloro-1-[p-(o-1H-tetrazol-5-ylphenyl)benzyl]imidazole-5-methanol monopotassium salt]
[1]
  Tg midpoint: about 51 °C
  Tg onset: about 46 °C
[2]
  powder flowability: sticks and agglomerates
